Test results reported in US20070259879A1, “Piperazine and piperidine biaryl derivatives” (priority 2006, published 2007).

Test system: HIV-1 pseudotyped virus
Assay: HIV-1 pseudotyped virus assay (luciferase reporter gene, single cycle of infection)
Type: cell-based
Conditions: Human immunodeficiency virus 1, CCR5, 72 h, read-out: Activity (antiviral activity, IC50)
Description: In this example are illustrated experimental procedures for determining biological activity, such as antiviral activity. For determining biological activity, an HIV-1 infection assay was used to determine the antiviral potency for compounds of the present invention.
For determining biological activity, an HIV-1 pseudotyped virus assay was used to determine the respective antiviral potencies of each compound tested in the assay for comparison. The pseudotyped assay scores for a reduction in infection as indicated by decreased signal from the reporter gene encoding a luciferase enzyme (“reporter gene”). The assay employs cell lines expressing CD4 and either of the primary chemokine receptors (CCR5 or CXCR4) that HIV uses as a co-receptor (“target cells”). Pseudotyped virus was prepared by co-transfection of 293T cells with: 1) a plasmid construct carrying the HIV-1 envelope of choice, in combination with 2) a pseudotyped virus backbone construct in which (a) envelope expression has been abrogated due to a frameshift in the envelope sequence, and (b) the reporter gene replaces nef. Expression of HIV-1 envelope on 293T packaging cells results in the production of a pseudotyped virus carrying the reporter gene that is capable of a single cycle of infection.
The compounds of the present invention being tested for antiviral activity were serially diluted and dose responses determined in duplicate in two separate experiments. The compounds to be tested were added directly to the plated, target cells, followed by the addition of pseudotyped virus described above. The cells were cultured for three days prior harvest. Media and compound were removed, the cell monolayer was washed, lysed by detergent, and then frozen at −80 degrees C. for a minimum of 30 minutes. Following thawing and acclimation to room temperature, luciferase production was quatified by injecting 100 […]I of a substrate (of the enzyme encoded by the reporter gene) into each well followed by detecting the signal (light emitted from the interaction between the enzyme and substrate) after 5 seconds. In the pseudotyped assay, a 50% reduction in signal is significant, and provides the primary cutoff value for assessing antiviral activity (“IC50” is defined as the dilution resulting in a 50% reduction in enzymatic activity as interpolated from a titration curve). Representative compounds according to the present invention, and their antiviral activity, are illustrated in Table 3.

Structure (SMILES): C[C@@H]1CN(C(=O)c2ccccc2)CCN1C(=O)C(=O)c1ccc(-c2cscn2)cc1 [Example 177]
- IC50: < 5 µM

Structure (SMILES): C[C@@H]1CN(C(=O)c2ccccc2)CCN1C(=O)C(=O)c1ccc(-c2cscn2)s1 [Example 178]
- IC50: < 5 µM

Structure (SMILES): C[C@@H]1CN(C(=O)c2ccccc2)CCN1C(=O)C(=O)c1ccc(-c2cncs2)s1 [Example 179]
- IC50: < 5 µM

Structure (SMILES): COc1cc(-c2cc(C)no2)ccc1C(=O)C(=O)N1CCN(C(=O)c2ccccc2)C[C@H]1C [Example 180]
- IC50: < 5 µM

Structure (SMILES): Cc1cc(-c2cc[nH]n2)ccc1C(=O)C(=O)N1CCN(C(=O)c2ccccc2)C[C@H]1C [Example 181, 1-((R)-4-Benzoyl-2-methyl-piperazin-1-yl)-2-[2-methyl-4-(1H-pyrazol-3-yl)-phenyl]-ethane-1,2-dione]
- IC50: < 5 µM

Structure (SMILES): Cc1ncc(-c2ccc(C(=O)C(=O)N3CCN(C(=O)c4ccccc4)C[C@H]3C)s2)s1 [Example 182]
- IC50: > 5 µM

Structure (SMILES): C[C@@H]1CN(C(=O)c2ccccc2)CCN1C(=O)C(=O)c1ccc(-c2cc[nH]n2)cc1F [Example 183]
- IC50: < 5 µM

Structure (SMILES): Cc1cc(C(=O)C(=O)N2CCN(C(=O)c3ccccc3)C[C@H]2C)ccc1-c1cc[nH]n1 [Example 184, 1-((R)-4-Benzoyl-2-methyl-piperazin-1-yl)-2-[3-methyl-4-(1H-pyrazol-3-yl)-phenyl]-ethane-1,2-dione]
- IC50: < 5 µM

Structure (SMILES): COc1cc(C(=O)C(=O)N2CCN(C(=O)c3ccccc3)C[C@H]2C)ccc1-c1cc(C)no1 [Example 185]
- IC50: < 5 µM

Structure (SMILES): C[C@@H]1CN(C(=O)c2ccccc2)CCN1C(=O)C(=O)c1ccc(-c2ccn[nH]2)nc1 [Example 186, 1-((R)-4-Benzoyl-2-methyl-piperazin-1-yl)-2-[6-(1H-pyrazol-3-yl)-pyridin-3-yl]-ethane-1,2-dione]
- IC50: < 5 µM

Structure (SMILES): C[C@@H]1CN(C(=O)c2ccccc2)CCN1C(=O)C(=O)c1ccc(-c2nccn2C)cc1 [Example 187]
- IC50: > 5 µM

Structure (SMILES): C[C@@H]1CN(C(=O)c2ccccc2)CCN1C(=O)C(=O)c1ccc(-c2nccn2C)s1 [Example 188]
- IC50: > 5 µM

Structure (SMILES): C[C@@H]1CN(C(=O)c2ccccc2)CCN1C(=O)C(=O)c1ccc(-c2cnco2)c(Cl)c1 [Example 189]
- IC50: < 5 µM

Structure (SMILES): COc1cc(-c2cc[nH]n2)ccc1C(=O)C(=O)N1CCN(C(=O)c2ccccc2)C[C@H]1C [Example 190]
- IC50: < 5 µM

Structure (SMILES): COc1cc(C(=O)C(=O)N2CCN(C(=O)c3ccccc3)C[C@H]2C)ccc1-c1cc[nH]n1 [Example 191]
- IC50: < 5 µM

Structure (SMILES): C[C@@H]1CN(C(=O)c2ccccc2)CCN1C(=O)C(=O)c1ccc(-c2cc[nH]n2)cc1Cl [Example 192]
- IC50: < 5 µM

Structure (SMILES): C[C@@H]1CN(C(=O)c2ccccc2)CCN1C(=O)C(=O)c1ccc(-n2cccn2)cc1 [Example 193, 1-((R)-4-Benzoyl-2-methyl-piperazin-1-yl)-2-(4-pyrazol-1-yl-phenyl)-ethane-1,2-dione]
- IC50: < 5 µM

Structure (SMILES): Cc1noc(C)c1-c1ccc(C(=O)C(=O)N2CCN(C(=O)c3ccccc3)C[C@H]2C)cn1 [Example 194]
- IC50: > 5 µM

Structure (SMILES): Cc1cc(-n2cccn2)ccc1C(=O)C(=O)N1CCN(C(=O)c2ccccc2)C[C@H]1C [Example 195, 1-((R)-4-Benzoyl-2-methyl-piperazin-1-yl)-2-(2-methyl-4-pyrazol-1-yl-phenyl)-ethane-1,2-dione]
- IC50: > 5 µM

Structure (SMILES): C[C@@H]1CN(C(=O)c2ccccc2)CCN1C(=O)C(=O)c1c[nH]c(-c2cccnc2)c1 [Example 196]
- IC50: > 5 µM

Structure (SMILES): CC1CN(C(=O)c2ccccc2)CCN1C(=O)C(=O)c1ccc(-c2cnn(C)c2)cc1 (stereo not shown) [Example 197]
- IC50: < 5 µM

Structure (SMILES): CC(=O)c1ccc(-c2ccc(C(=O)C(=O)N3CCN(C(=O)c4ccccc4)C[C@H]3C)cc2)s1 [Example 198]
- IC50: < 5 µM

Structure (SMILES): C[C@@H]1CN(C(=O)c2ccccc2)CCN1C(=O)C(=O)c1ccc(-c2cccnc2)cc1 [Example 199]
- IC50: < 5 µM

Structure (SMILES): CC1CN(C(=O)c2ccccc2)CCN1C(=O)C(=O)c1ccc(-c2ncccc2F)cc1 (stereo not shown) [Example 200]
- IC50: < 5 µM

Structure (SMILES): C[C@@H]1CN(C(=O)c2ccccc2)CCN1C(=O)C(=O)c1ccc(-c2ccc(C(F)(F)F)cn2)cc1 [Example 201]
- IC50: < 5 µM

Structure (SMILES): COc1cc(-c2ccc(C(=O)C(=O)N3CCN(C(=O)c4ccccc4)C[C@H]3C)cc2)nc(OC)n1 [Example 202]
- IC50: < 5 µM

Structure (SMILES): C[C@@H]1CN(C(=O)c2ccccc2)CCN1C(=O)C(=O)c1ccc(-c2ncccn2)cc1 [Example 203]
- IC50: < 5 µM

Structure (SMILES): C[C@@H]1CN(C(=O)c2ccccc2)CCN1C(=O)C(=O)c1ccc(-c2ccsc2)cc1 [Example 204]
- IC50: < 5 µM

Structure (SMILES): C[C@@H]1CN(C(=O)c2ccccc2)CCN1C(=O)C(=O)c1ccc(-c2cccs2)cc1 [Example 205]
- IC50: < 5 µM

Structure (SMILES): C[C@@H]1CN(C(=O)c2ccccc2)CCN1C(=O)C(=O)c1ccc(-c2ccncc2)cc1 [Example 206]
- IC50: < 5 µM

Structure (SMILES): Cc1ccc(-c2ccc(C(=O)C(=O)N3CCN(C(=O)c4ccccc4)C[C@H]3C)cc2)nc1 [Example 207]
- IC50: < 5 µM

Structure (SMILES): Cc1ccnc(-c2ccc(C(=O)C(=O)N3CCN(C(=O)c4ccccc4)CC3C)cc2)n1 (stereo not shown) [Example 208]
- IC50: < 5 µM

Structure (SMILES): Cc1cc(-c2ccc(C(=O)C(=O)N3CCN(C(=O)c4ccccc4)C[C@H]3C)c(Cl)c2)on1 [Example 209]
- IC50: < 5 µM

Structure (SMILES): Cc1cc(-c2ccc(C(=O)C(=O)N3CCN(C(=O)c4ccccc4)C[C@H]3C)cc2F)on1 [Example 210]
- IC50: < 5 µM

Structure (SMILES): C[C@@H]1CN(C(=O)c2ccccc2)CCN1C(=O)C(=O)c1ccc(N2CCCC2)cc1 [Example 211, 1-((R)-4-Benzoyl-2-methyl-piperazin-1-yl)-2-(4-pyrrolidin-1-yl-phenyl)-ethane-1,2-dione]
- IC50: > 5 µM

Structure (SMILES): C[C@@H]1CN(C(=O)c2ccccc2)CCN1C(=O)C(=O)c1ccc(N2CCOC2=O)cc1 [Example 212, 1-((R)-4-Benzoyl-2-methyl-piperazin-1-yl)-2-[4-(2-oxo-oxazolidin-3-yl)-phenyl]-ethane-1,2-dione]
- IC50: > 5 µM

Structure (SMILES): Cc1cc(C(=O)C(=O)N2CCN(C(=O)c3ccccc3)C[C@H]2C)ccc1-n1cccn1 [Example 213, 1-((R)-4-Benzoyl-2-methyl-piperazin-1-yl)-2-(3-methyl-4-pyrazol-1-yl-phenyl)-ethane-1,2-dione]
- IC50: > 5 µM

Structure (SMILES): C[C@@H]1CN(C(=O)c2ccccc2)CCN1C(=O)C(=O)c1ccc(-n2cccn2)nc1 [Example 214, 1-((R)-4-Benzoyl-2-methyl-piperazin-1-yl)-2-(6-pyrazol-1-yl-pyridin-3-yl)-ethane-1,2-dione]
- IC50: < 5 µM

Structure (SMILES): C[C@@H]1CN(C(=O)c2ccccc2)CCN1C(=O)C(=O)c1ccc(-c2cc[nH]n2)cc1N(C)C [Example 216, 1-((R)-4-Benzoyl-2-methyl-piperazin-1-yl)-2-[2-dimethylamino-4-(1H-pyrazol-3-yl)-phenyl]-ethane-1,2-dione]
- IC50: > 5 µM

Structure (SMILES): C[C@@H]1CN(C(=O)c2ccccc2)CCN1C(=O)C(=O)c1ccc(-n2ccnc2)cc1 [Example 217]
- IC50: < 5 µM

Structure (SMILES): Cc1cc(-n2ccnc2)ccc1C(=O)C(=O)N1CCN(C(=O)c2ccccc2)C[C@H]1C [Example 218]
- IC50: < 5 µM

Structure (SMILES): C[C@@H]1CN(C(=O)c2ccccc2)CCN1C(=O)C(=O)c1ccc(-c2cc[nH]n2)cc1N [Example 219, 1-((R)-4-Benzoyl-2-methyl-piperazin-1-yl)-2-[2-amino-4-(1H-pyrazol-3-yl)-phenyl]-ethane-1,2-dione]
- IC50: < 5 µM

Structure (SMILES): Cc1cc(-c2cc(Cl)c(C(=O)C(=O)N3CCN(C(=O)c4ccccc4)C[C@H]3C)c(Cl)c2)on1 [Example 220]
- IC50: > 5 µM
